According to publication PMC10714400, “Antimicrobial Peptide–Peptoid Hybrids with and without Membrane Disruption” (ACS Infectious Diseases, 2023):
Values after ≈ are worked out from the molar mass of the structure shown. Like-named read-outs stand apart in the source and are kept apart here. Where a SMILES comes first, the peptide text is derived from it. [ ]: non-standard residue; d: D form.

Legend:
[1] = Circular dichroism, α-helical content; assay type: physicochemical; conditions: 0.1 mg/mL; for CD %α with 5 mM DPC: 10 mM phosphate buffer pH 7.4, 5 mM DPC; for CD %α with 20% TFE: 10 mM phosphate buffer pH 7.4, 20% TFE
[2] = system: S. aureus Newman
Summary of the method: (§1)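 MTT added (20–30 min, room temperature); MIC read by eye as lowest concentration inhibiting visible growth (yellow). Polymyxin B positive control from 16 μg/mL.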

[3] = system: P. aeruginosa PA14
Summary of the method: as §1

[4] = system: S. maltophilia
Summary of the method: as §1

[5] = system: B. cenocepacia
Summary of the method: as §1

[6] = system: S. epidermis
Summary of the method: as §1

[7] = system: E. coli W3110
Summary of the method: as §1

[8] = system: E. cloacae
Summary of the method: as §1

[9] = system: PA14 4.13 (phoQ)
Summary of the method: as §1

[10] = system: PA14 2P4 (pmrB)
Summary of the method: as §1

[11] = system: S. aureus COL (MRSA)
Summary of the method: as §1

With `CC(C)C[C@H](NC(=O)[C@H](CC(C)C)NC(=O)[C@H](CC(C)C)NC(=O)[C@@H](CCCCN)NC(=O)[C@H](CC(C)C)NC(=O)[C@H](CC(C)C)NC(=O)[C@@H](CCCCN)NC(=O)[C@H](CC(C)C)NC(=O)[C@H](CC(C)C)NC(=O)[C@@H](CCCCN)NC(=O)[C@H](N)CCCCN)C(N)=O` [ln69, kkLLkLLkLLL, reference compound] (H-[dK][dK]LL[dK]LL[dK]LLL-NH2) the “CD %α with 5 mM DPC” value ([1]; DichroWeb, Contin-LL) was 61%, the “CD %α with 20% TFE” value ([1]; DichroWeb, Contin-LL) was 34% and the “CD %α with 5 mM DPC” value ([1]; Table S2) was 61%. The “CD %α with 20% TFE” value ([1]; Table S2) was 34%, the “MIC S. aureus Newman, […] MH at pH 8.5” value ([2]; CSV, […] MH at pH 8.5) was 3 ug/mL and the “MIC S. aureus Newman, full MH at pH 7.4” value ([2]; CSV, full MH at pH 7.4) was 8 ug/mL. The “MIC S. aureus Newman” value ([2]; MH pH 7.4, 16–20 h at 37 °C) was 8 µg/mL (≈ 6.05 µM), the “MIC S. aureus Newman” value ([2]; Table S3, […] MH at pH 8.5) was 2 to 4 µg/mL and the “MIC P. aeruginosa PA14, […] MH at pH 8.5” value ([3]; CSV, […] MH at pH 8.5) was 3 ug/mL. For the same compound, the “MIC P. aeruginosa PA14, full MH at pH 7.4” value ([3]; CSV, full MH at pH 7.4) was 2 ug/mL, the “MIC P. aeruginosa PA14” value ([3]; MH pH 7.4, 16–20 h at 37 °C) was 2 µg/mL (≈ 1.51 µM) and the “MIC P. aeruginosa PA14” value ([3]; Table S3, […] MH at pH 8.5, 16-20 hours at 37 °C) was 2 to 4 µg/mL. The “MIC S. maltophilia, […] MH at pH 8.5” value ([4]; CSV, […] MH at pH 8.5) was 2 ug/mL, the “MIC S. maltophilia, full MH at pH 7.4” value ([4]; CSV, full MH at pH 7.4) was 2 ug/mL and the “MIC S. maltophilia” value ([4]; MH pH 7.4, 16–20 h at 37 °C) was 2 µg/mL (≈ 1.51 µM). The “MIC S. maltophilia” value ([4]; Table S3, […] MH at pH 8.5) was 2 µg/mL (≈ 1.51 µM), the “MIC B. cenocepacia, full MH at pH 7.4” value ([5]; CSV, full MH at pH 7.4) was greater than 32 ug/mL and the “MIC B. cenocepacia” value ([5]; MH pH 7.4, 16–20 h at 37 °C) was greater than 32 µg/mL. For the same compound, the “MIC S. epidermis, […] MH at pH 8.5” value ([6]; CSV, […] MH at pH 8.5) was 1 ug/mL, the “MIC S. epidermis, full MH at pH 7.4” value ([6]; CSV, full MH at pH 7.4) was 3 ug/mL and the “MIC S. epidermis” value ([6]; MH pH 7.4, 16–20 h at 37 °C) was 2 to 4 µg/mL. The “MIC S. epidermis” value ([6]; Table S3, […] MH at pH 8.5) was 1 µg/mL (≈ 0.757 µM), the “MIC E. coli W3110, […] MH at pH 7.4” value ([7]; CSV, […] MH at pH 7.4) was 2 ug/mL and the “MIC E. coli W3110, […] MH at pH 8.5” value ([7]; CSV, […] MH at pH 8.5) was 2 ug/mL. For the same compound, the “MIC E. coli W3110, full MH at pH 7.4” value ([7]; CSV, full MH at pH 7.4) was 4 ug/mL, the “MIC E. coli W3110 […] 7.4” value ([7]; Table S2, […] MH, pH 7.4) was 2 µg/mL (≈ 1.51 µM) and the “MIC E. coli W3110 […] 8.5” value ([7]; Table S2, […] MH, pH 8.5) was 2 µg/mL (≈ 1.51 µM). For the same compound, the “MIC E. coli W3110 Full MH 7.4” value ([7]; Table S2, full MH, pH 7.4) was 4 µg/mL (≈ 3.03 µM), the “MIC E. coli W3110 Full MH 8.5” value ([7]; Table S2, full MH, pH 8.5) was 16 µg/mL (≈ 12.1 µM) and the “MIC E. cloacae, […] MH at pH 8.5” value ([8]; CSV, […] MH at pH 8.5) was 2 ug/mL. The “MIC E. cloacae, full MH at pH 7.4” value ([8]; CSV, full MH at pH 7.4) was 4 ug/mL, the “MIC E. cloacae” value ([8]; MH pH 7.4, 16–20 h at 37 °C) was 4 µg/mL (≈ 3.03 µM) and the “MIC E. cloacae” value ([8]; Table S3, […] MH at pH 8.5) was 2 µg/mL (≈ 1.51 µM). For the same compound, the “MIC P. aeruginosa PA14 4.13, […] MH at pH 8.5” value ([9]; CSV, […] MH at pH 8.5) was 3 ug/mL, the “MIC P. aeruginosa PA14 4.13, full MH at pH 7.4” value ([9]; CSV, full MH at pH 7.4) was 4 ug/mL and the “MIC PA14 4.13 (phoQ)” value ([9]; MH pH 7.4, 16–20 h at 37 °C) was 4 µg/mL (≈ 3.03 µM). The “MIC P. aeruginosa PA14 4.13” value ([9]; Table S3, […] MH at pH 8.5) was 2 to 4 µg/mL, the “MIC P. aeruginosa PA14 2P4, […] MH at pH 8.5” value ([10]; CSV, […] MH at pH 8.5) was 4 ug/mL and the “MIC P. aeruginosa PA14 2P4, full MH at pH 7.4” value ([10]; CSV, full MH at pH 7.4) was 32 ug/mL. For the same compound, the “MIC PA14 2P4 (pmrB)” value ([10]; MH pH 7.4, 16–20 h at 37 °C) was 32 µg/mL (≈ 24.2 µM), the “MIC P. aeruginosa PA14 2P4” value ([10]; Table S3, […] MH at pH 8.5) was 4 µg/mL (≈ 3.03 µM) and the “MIC S. aureus COL (MRSA), […] MH at pH 7.4” value ([11]; CSV, […] MH at pH 7.4) was 2 ug/mL. For the same compound, the “MIC S. aureus COL (MRSA), […] MH at pH 8.5” value ([11]; CSV, […] MH at pH 8.5) was 2 ug/mL, the “MIC S. aureus COL (MRSA), full MH at pH 7.4” value ([11]; CSV, full MH at pH 7.4) was 16 ug/mL and the “MIC S. aureus COL (MRSA), full MH at pH 8.5” value ([11]; CSV, full MH at pH 8.5) was 16 ug/mL. The “MIC S. aureus COL (MRSA) […] 7.4” value ([11]; Table S2, […] MH, pH 7.4) was 2 µg/mL (≈ 1.51 µM), the “MIC S. aureus COL (MRSA) […] 8.5” value ([11]; Table S2, […] MH, pH 8.5) was 2 µg/mL (≈ 1.51 µM) and the “MIC S. aureus COL (MRSA) Full MH 7.4” value ([11]; Table S2, full MH, pH 7.4) was 16 µg/mL (≈ 12.1 µM).
